The target of assay [1] is T1, IDO1 (Homo sapiens, UniProt P14902). Put plainly: Cellular IDO1 activity assay in IFN-γ induced MDA-MB-231 cells. In kind it is cell-based. Set-up: induce the expression of the native IDO1 enzyme from its mRNA in the MDA-MB-231 cells; endogenous in cells; host or cells: MDA-MB-231 cells induced with human IFN-γ (50 ng/mL). The settings on record: IDO1 expression induced by human IFN-γ (50 ng/mL); mean of three. On the procedure:
The cellular enzyme activity assay was performed according to the reported procedure with minor modifications[19],[27]–[30],[33],[54]. Briefly, MDA-MB-231 breast cancer cells were selected for this assay because of the presence of IDO1 mRNA in this cell line. First, cells were grown in DMEM/F12 complete media overnight. Then different concentration of human interferon-gamma (IFN-γ) (from 5–1000 ng/mL) was added to it and incubated for 48 hours. This treatment is reported to allow over-expression of IDO1 enzyme in MDA-MB-231 cells. […] Sterile cell-culture grade PBS was used to wash the cells by centrifugation technique. Then, the pellet was lysed in 10 mM HEPES buffer by passing through a sterile syringe. The lysate was used for standard IDO1 assay as mentioned earlier. The relative amount of N-formylkynurenine generated in the presence of the different concentration of IFN-γ was used to optimize the required concentration of IFN-γ for the IDO1 inhibition assay. […] Cells stimulated with IFN-γ alone were used as negative control, while cells stimulated with L-Trp without compound served as positive control. The cells were washed with sterile cell culture grade PBS and lysed in 10 mM HEPES buffer by sterile syringe. The lysate was used for standard IDO1 assay, as mentioned earlier, and the extent of IDO1 enzyme inhibition was determined for the selected compounds.

The target in a further assay is T2, TDO enzyme (Homo sapiens, UniProt P48775).
T2 construct: 6xHis (N); made in house; host or cells: Escherichia coli BL21 (DE3) (pET 28a vector)
Kind of assay: HPLC based TDO inhibition assay. In kind it is biochemical. The protocol:
(§1) HPLC based IDO1, and TDO inhibition assays were performed according to the earlier reported procedure[19],[27]–[30]. The reaction mixture (250 µL) contained KPB (100 mM, pH 6.5 for IDO1 and 50 mM, pH 8.0 for TDO), sodium ascorbate (20 mM), methylene blue (10 µM), catalase (240 nM, from bovine liver, Sigma), L-Trp (150 µM), purified enzyme (40 nM for IDO1 and 25 nM for TDO), DMSO (0.05%, v/v), Triton-X 100 (0.01%, v/v) and inhibitors. The concentration of the compound was varied from 100 µM to 32 nM by serial dilution. The mixture was incubated at 37 °C for 1 hour in the absence and presence of the synthesized compounds. The reaction was then quenched using 50 µL of 30% (w/v) trichloroacetic acid and incubated at 65 °C for additional 15 minutes to allow complete hydrolysis of N-formylkynurenine to kynurenine. After that, the mixture was centrifuged at 10,000 rpm for 10 minutes, and 100 µL of clear solution was transferred to another tube for HPLC analysis. Then, 20 µL of the reaction mixture was then injected through Ascentis® express C18, 2.7 µm HPLC column with a flow rate of 0.5 mL/minute of the mobile phase containing 50% sodium citrate buffer (40 mM, pH 2.25) and 50% methanol (v/v) with 400 µM SDS. The area under the curve at 365 nm chromatogram corresponding to the kynurenine formation was recorded, and % of inhibition was calculated using standard curve prepared with pure kynurenine (from Sigma) under similar experimental conditions.

Assay [2] addresses T1, IDO1. Put plainly: Kynurenine assay by HPLC analysis, IDO1. In kind it is biochemical. Set-up: made in house; host or cells: Escherichia coli M15 (pQE30 vector with pREP4 plasmid). The settings on record: for IC50: HPLC based IDO1 inhibition assay; for % Of inhibition for IDO1 enzyme / inhibition at 0.032 µM / inhibition at 0.16 µM / inhibition at 0.8 µM / inhibition at 4 µM / inhibition at 20 µM / inhibition at 100 µM: HPLC. On the procedure: as §1

The target in assay [3] is T3, purified human TDO enzyme (Homo sapiens, UniProt P48775).
T3 construct: 6xHis (N); made in house; host or cells: Escherichia coli BL21 (DE3) (pET 28a vector)
Put plainly: TDO inhibition assay by the spectrometric method. In kind it is biochemical. As to conditions: spectrophotometric. On the procedure:
Both IDO1 and TDO inhibition assays were performed according to the reported procedures[26]–[30],[50],[51]. The solubility of the compounds in water was either moderate or poor. […] In the assay system, the minimum and maximum amount of DMSO was 0.02% and 2%, respectively. The standard reaction mixture (500 μL) containing KPB (100 mM, pH 6.5 for IDO1 enzyme and 50 mM, pH 8.0 for TDO enzyme), sodium ascorbate (20 mM), methylene blue (10 µM), catalase (240 nM, from bovine liver), L-Trp (150 µM), purified enzyme (40 nM for IDO1 and 25 nM for TDO), DMSO (0.05%, v/v), Triton-X 100 (0.01%, v/v) and inhibitors was incubated at 37 °C for 1 hour. The concentration of the inhibitors was varied from 100 µM to 32 nM by serial dilution technique. Then, the reaction was quenched with 100 µL of 30% (w/v) trichloroacetic acid and was incubated for further 15 minutes at 65 °C. After that, 2% (w/v) pDMAB was used to quantify the amount of kynurenine formation. The absorbance of the reaction mixture was recorded by UV-Vis spectrophotometer at 480 nm. The Km = 59.76 µM and Kcat = 6.18 sec^−1.

The target of assay [4] is T4, purified human IDO1 enzyme (Homo sapiens, UniProt P14902).
T4 construct: made in house; host or cells: Escherichia coli M15 (pQE30 vector with pREP4 plasmid)
Kind of assay: IDO1 inhibition assay by the spectrometric method (pDMAB). The settings on record: for IC50: purified human IDO1, spectrophotometric, mean of three independent assays, read-out: hIDO1 IC50. In kind it is biochemical. The protocol: Both IDO1 and TDO inhibition assays were performed according to the reported procedures[26]–[30],[50],[51]. […] In the assay system, the minimum and maximum amount of DMSO was 0.02% and 2%, respectively. […] The concentration of the inhibitors was varied from 100 µM to 32 nM by serial dilution technique. Then, the reaction was quenched with 100 µL of 30% (w/v) trichloroacetic acid and was incubated for further 15 minutes at 65 °C. After that, 2% (w/v) pDMAB was used to quantify the amount of kynurenine formation. The absorbance of the reaction mixture was recorded by UV-Vis spectrophotometer at 480 nm.

T3 sequence (P48775 whole entry): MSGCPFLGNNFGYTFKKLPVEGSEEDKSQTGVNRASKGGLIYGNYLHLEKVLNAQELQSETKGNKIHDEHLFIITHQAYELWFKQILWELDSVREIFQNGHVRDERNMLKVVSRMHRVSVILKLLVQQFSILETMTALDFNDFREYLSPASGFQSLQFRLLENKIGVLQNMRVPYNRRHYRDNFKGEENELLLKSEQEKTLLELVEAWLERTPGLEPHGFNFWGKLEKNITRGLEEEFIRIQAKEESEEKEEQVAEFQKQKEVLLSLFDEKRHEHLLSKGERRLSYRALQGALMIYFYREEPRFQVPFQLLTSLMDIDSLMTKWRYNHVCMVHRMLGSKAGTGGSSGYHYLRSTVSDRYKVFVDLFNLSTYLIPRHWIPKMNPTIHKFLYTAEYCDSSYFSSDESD
T2 sequence (P48775 whole entry): as above
T1 sequence (P14902 whole entry): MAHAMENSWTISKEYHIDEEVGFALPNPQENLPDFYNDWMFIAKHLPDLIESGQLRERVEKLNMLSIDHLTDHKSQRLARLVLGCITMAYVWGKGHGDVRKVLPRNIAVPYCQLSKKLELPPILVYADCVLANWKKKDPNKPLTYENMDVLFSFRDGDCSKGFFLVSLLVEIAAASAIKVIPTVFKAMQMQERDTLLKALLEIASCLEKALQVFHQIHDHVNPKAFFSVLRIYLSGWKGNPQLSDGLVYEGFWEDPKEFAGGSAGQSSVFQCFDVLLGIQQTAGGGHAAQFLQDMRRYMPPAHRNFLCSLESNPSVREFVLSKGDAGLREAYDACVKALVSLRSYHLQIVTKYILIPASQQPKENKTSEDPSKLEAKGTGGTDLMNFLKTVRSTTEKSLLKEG
T4 sequence (P14902 whole entry): as above

`O=C(O)c1n[nH]nc1-c1ccc(F)c(F)c1` [Compound 4a] gave a half-maximal effective concentration (EC50) on IDO1 [1] of 1230 ± 21 nM. Besides, the “% Of inhibition for TDO enzyme” value at TDO enzyme (32 nM) is 6%; at TDO enzyme (160 nM), 18%; at TDO enzyme (800 nM) it was 26%; on TDO enzyme (4 µM), 38%; at TDO enzyme (20 µM), 41%; at TDO enzyme (100 µM) it was 54%. Besides, the half-maximal inhibitory concentration (IC50) stood at 8944 ± 87 nM at IDO1 [2] and 17400 ± 918 nM in assay [4]. Moreover, the “% Of inhibition for IDO1 enzyme” value at IDO1 [2] (32 nM) turned out to be 11%; at IDO1 [2] (160 nM) it was 13%; on IDO1 [2] (800 nM), 29%; on IDO1 [2] (4 µM), 30%; at IDO1 [2] (20 µM), 57%; at IDO1 [2] (100 µM), 65%. For the same compound, the “% of Enzyme inhibition (TDO)” value in assay [3] (32 nM) is recorded as 4%; in assay [3] (160 nM), 8%; in assay [3] (800 nM), 16%; in assay [3] (4 µM), 18%; in assay [3] (20 µM), 22%; in assay [3] (100 µM) it was 30%.
The compound `CCOC(=O)c1n[nH]nc1-c1ccc(Cl)c(Cl)c1` [Compound 2j] yielded an EC50 on IDO1 [1] of 160 ± 7 nM. For the same compound, the “% Of inhibition for TDO enzyme” value at TDO enzyme (32 nM) came out at 1%; at TDO enzyme (160 nM), 35%; at TDO enzyme (800 nM) it was 36%; at TDO enzyme (4 µM), 49%; on TDO enzyme (20 µM), 41%; on TDO enzyme (100 µM), 43%. In addition, the IC50 against IDO1 [2] amounted to 257 ± 9 nM; in assay [4] it was 163 ± 25 nM. Besides, the “% Of inhibition for IDO1 enzyme” value on IDO1 [2] (32 nM) was 24%; on IDO1 [2] (160 nM), 31%; on IDO1 [2] (800 nM), 52%; on IDO1 [2] (4 µM), 65%; at IDO1 [2] (20 µM) it was 77%; at IDO1 [2] (100 µM) it was 77%. Further, the “% of Enzyme inhibition (TDO)” value in assay [3] (32 nM) is given as 8%; in assay [3] (160 nM), 12%; in assay [3] (800 nM) it was 25%; in assay [3] (4 µM), 30%; in assay [3] (20 µM) it was 44%; in assay [3] (100 µM), 53%.
In turn, `NC(=O)c1n[nH]nc1-c1ccccc1` [Compound 3a, 5-phenyl-2H-1,2,3-triazole-4-carboxamide] showed an EC50 at IDO1 [1] of 1300 ± 68 nM. The values for the inhibition at 0.032 µM (on TDO enzyme (32 nM); against IDO1 [2] (32 nM); in assay [3] (32 nM)) were 3%, 11% and 5%, respectively. Further, the values for the inhibition at 0.16 µM (against TDO enzyme (160 nM); on IDO1 [2] (160 nM); in assay [3] (160 nM)) were 4%, 31% and 7%, respectively. Moreover, the inhibition at 0.8 µM against TDO enzyme (800 nM) is 17%; against IDO1 [2] (800 nM) it was 36%; in assay [3] (800 nM), 19%. Also, the inhibition at 4 µM came out at 22% against TDO enzyme (4 µM), 63% against IDO1 [2] (4 µM) and 23% in assay [3] (4 µM). Also, the results for the inhibition at 20 µM (on TDO enzyme (20 µM); on IDO1 [2] (20 µM); in assay [3] (20 µM)) were 25%, 79% and 29%, respectively. Further, the inhibition at 100 µM on TDO enzyme (100 µM) is 30%; at IDO1 [2] (100 µM), 80%; in assay [3] (100 µM), 42%. Moreover, the IC50 on IDO1 [2] stood at 1190 ± 39 nM; in assay [4], 8541 ± 84 nM. Besides, the “fold stronger IDO1 inhibitory activity than 1a” value in assay [4] (in comparison with lead compound 1a) worked out at 10 fold.
In turn, `NS(=O)(=O)NCCNC(=O)c1n[nH]nc1-c1ccc(Cl)c(Cl)c1` [Compound 4l, 5-(3,4-dichlorophenyl)-N-(2-(sulfamoylamino)ethyl)-2H-1,2,3-triazole-4-carboxamide] returned a 50% effective concentration (EC50) at IDO1 [1] of 83 ± 5 nM. Further, the inhibition at 0.032 µM against TDO enzyme (32 nM) is 14%; against IDO1 [2] (32 nM), 33%; in assay [3] (32 nM) it was 3%. Further, the inhibition at 0.16 µM came to 15% at TDO enzyme (160 nM), 57% against IDO1 [2] (160 nM) and 10% in assay [3] (160 nM). Further, the inhibition at 0.8 µM at TDO enzyme (800 nM) is 22%; at IDO1 [2] (800 nM) it was 65%; in assay [3] (800 nM), 11%. The inhibition at 4 µM is 29% at TDO enzyme (4 µM), 88% against IDO1 [2] (4 µM), 19% in assay [3] (4 µM) and 71 to 86% in assay [4] (4 μM compound). For the same compound, the values for the inhibition at 20 µM (at TDO enzyme (20 µM); against IDO1 [2] (20 µM); in assay [3] (20 µM)) were 38%, 93% and 25%, respectively. Besides, the inhibition at 100 µM is 55% against TDO enzyme (100 µM), 94% at IDO1 [2] (100 µM), 26% in assay [3] (100 µM) and 82 to 93% in assay [4] (100 μM compound). The figures for the IC50 (against IDO1 [2]; in assay [4]) were 98 ± 7 nM and 93 ± 9 nM, respectively.
At IDO1 [1], `NC(=O)c1n[nH]nc1-c1ccc(Cl)c(Cl)c1` [Compound 3j] registered an EC50 of 53 ± 4 nM. Moreover, the “% Of inhibition for TDO enzyme” value is recorded as 33% on TDO enzyme (32 nM); 39% at TDO enzyme (160 nM); 42% on TDO enzyme (800 nM); 47% on TDO enzyme (4 µM); 51% on TDO enzyme (20 µM); 51% at TDO enzyme (100 µM). For the same compound, the IC50 against IDO1 [2] is 99 ± 24 nM; in assay [4] it was 69 ± 4 nM. Further, the “% Of inhibition for IDO1 enzyme” value on IDO1 [2] (32 nM) turned out to be 39%; on IDO1 [2] (160 nM) it was 60%; on IDO1 [2] (800 nM), 70%; on IDO1 [2] (4 µM) it was 88%; on IDO1 [2] (20 µM), 89%; at IDO1 [2] (100 µM) it was 89%. For the same compound, the “% of Enzyme inhibition (TDO)” value in assay [3] (32 nM) turned out to be 6%; in assay [3] (160 nM) it was 9%; in assay [3] (800 nM), 20%; in assay [3] (4 µM), 27%; in assay [3] (20 µM), 32%; in assay [3] (100 µM) it was 60%.
